# Measurements from US20070015723A1, “Antiviral oligonucleotides having a conserved G4 core sequence” (priority 1992, published 2007).
# pEC50, pIC50: −log10 of the molar value. Several values for one entry are separate records, joined by “and”; a condition that tells them apart may be missing. Equal values may be shown once.
# Columns and labels:
# CD4/gp120 interaction = CD4/gp120 interaction (Human immunodeficiency virus type 1 group M subtype B, UniProt P03375); details: ELISA; Callahan et al.; cited from earlier work
# HSV-1 (KOS) [1] = assay: HSV-1 infection ELISA assay; assay type: cell-based; details: 50% inhibition of HSV replication relative to control infected cells; Table 1
# [2] = target: T1, human type II phospholipase A2 (Homo sapiens, UniProt P14555); assay: Human type II phospholipase A2 enzyme assay (3H-oleic acid labelled E. coli substrate); assay type: biochemical
# T1 sequence (P14555 21-144): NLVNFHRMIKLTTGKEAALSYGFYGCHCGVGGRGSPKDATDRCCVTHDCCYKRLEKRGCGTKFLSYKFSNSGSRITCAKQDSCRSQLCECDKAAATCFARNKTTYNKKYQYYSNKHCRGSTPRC
# [3] = system: Phospholipase A2 isolated from the venom of Trimeresurus flavoridis; assay: Phospholipase A2 enzyme assay, Trimeresurus flavoridis venom enzyme; assay type: biochemical
# [4] = system: Crotalus durissus terrificus phospholipase A2
# [5] = target: Bovine pancreatic phospholipase A2 (Bos taurus, UniProt P00593)
# [6] = target: Apis mellifera phospholipase A2 (Apis mellifera, UniProt P00630)
# HSV-2 strain E194 = assay type: cell-based
# [7] = system: Adenovirus, Type 5 (A-5), strain Adenoid 75; assay type: cell-based
# vaccinia virus = assay type: cell-based
# [8] = system: respiratory syncytial virus (RSV) strain Long; assay type: cell-based
# [9] = system: rhinovirus 2 (R-2), strain HGP; assay type: cell-based, human rhinovirus
# [10] = system: influenza strain A/NWS/33 (H1N1); assay type: cell-based, influenza virus
# HSV-1 (KOS) [11] = assay: Effect of time of oligonucleotide addition on HSV-1 inhibition (NHDF cells, ELISA); assay type: cell-based; design: dose or concentration left out as unconfirmed; details: added at the time of virus infection (t=0)
# HIV-1IIIB = assay: Acute HIV infection assay (XTT, CEM cells); details: for pIC50: inhibition of HIV
# CEM cell line = assay: Cytotoxicity (TC50) alongside acute HIV infection assay
# HSV-1 (KOS) [12] = assay: HSV-1 virus yield assay; assay type: cell-based; details: FIG. 2
# varicella zoster virus = assay type: cell-based
# HIV = assay type: cell-based
# Chain of Bovine pancreatic phospholipase A2 (P00593 23-145): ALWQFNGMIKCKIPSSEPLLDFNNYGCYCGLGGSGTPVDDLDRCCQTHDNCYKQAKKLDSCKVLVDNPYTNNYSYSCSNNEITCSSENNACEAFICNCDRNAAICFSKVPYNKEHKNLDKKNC
Substance,pEC50 (HSV-1 (KOS) [1]),ED50 (HSV-2 strain E194) [nM],TI (HSV-2 strain E194),ED50 [7] [nM],ED50 [8] [nM],TI [8],ED50 [9] [nM],ED50 [10] [nM],TI [10],TI (TC50/IC50) (HIV-1IIIB),pIC50 (HIV-1IIIB),also measured
Dextran sulfate,,,,,,,,,,,,effect on the gp120/CD4 interaction (CD4/gp120 interaction): does not prevent the gp120/CD4 interaction
"ISIS 3196: GGG T GGG T ATA G AAG G GCT CC, P = S, SEQ ID NO 47 (GGGTGGGTATAGAAGGGCTCC; all phosphorothioate, sugars by position and methylation of C not given here)",6.70,,,,,,,,,,,"inhibition of human type II phospholipase A2 ([2]; 1 μM): completely inhibited; % Inhibition (1 μM) ([2]; 1 μM, Table 4): 98.5%; % Inhibition (1 μM) ([2]; 1 μM, Table 5, two separate experiments): 100% and 76.2%; pIC50 ([2]; FIG. 5): ~6.82; effect on substrate kinetics ([2]; increasing E. coli substrate, ISIS 3481 at 0.2 μM and 2 μM): apparent noncompetitive inhibitor; inhibitory activity (% inhibition) ([2]; not boiled): 94%; inhibitory activity (% inhibition) ([2]; placed in boiling water for 15 minutes prior to assay): 21%; pIC50 [3]: < 5.00; pIC50 [4]: ~6.52; pIC50 [5]: ~4.00; pIC50 [6]: < 4.00"
"ISIS 3383: scrambled version of ISIS 1082, SEQ ID NO: 122; negative control oligonucleotide (TGGGCACGTGCCTGACACGGC; chemistry not given here)",,2800,>36,>100000,700,60,>100000,19000,>5,,,ED50 (vaccinia virus): >100000 nM; inhibition of HSV replication (HSV-1 (KOS) [11]): inhibited HSV replication
"ISIS 4721: CAC GGG GTC G, P = S, SEQ ID NO 32 (CACGGGGTCG; all phosphorothioate, sugars by position and methylation of C not given here)",6.40,,,,,,,,,546,6.68 and 6.59,TC50 (CEM cell line): 142000 nM
"ISIS 5652: TT GGGG TT GGGG TT GGGG TT, P = S, SEQ ID NO 37 (TTGGGGTTGGGGTTGGGGTT; all phosphorothioate, sugars by position not given here)",6.80,300,>333,>100000,1900,>53,>100000,600,93,227,7.00 and 6.74,anti-HSV activity in virus yield assay (HSV-1 (KOS) [12]): dose-dependent anti-HSV activity; ED50 (varicella zoster virus): 18000 nM; TI [7]: <1.0; ED50 (HIV): 180 nM; TI (HIV): 227
